From patent US20230355646A1, “AUTOPHAGY ACTIVATOR” (Resonac Corporation, priority 2020, published 2023)

Tested on: ATG5 gene
Test: ATG5 gene expression promoting effect in human senescent fibroblasts (quantitative real-time PCR)
Assay type: cell-based
Method: Normal human fibroblasts (NB1RGB, RIKEN BRC Cell Bank) were cultured until confluent in D-MEM medium (manufactured by Sigma-Aldrich) to which 10% fetal bovine serum (manufactured by MP Biomedicals) was added. Thereafter, the cells were treated with 250 μM aqueous hydrogen peroxide for 2 hours, and cultured for 24 hours in D-MEM medium to which fresh 10% fetal bovine serum was added. The treatment with aqueous hydrogen peroxide and the cell culture operation were repeated three times, and the obtained fibroblasts were used as senescent fibroblasts.
The prepared senescent fibroblasts were prepared at a seeding density of 10000 cells/cm^2 and cultured for 24 hours in D-MEM medium (manufactured by Sigma-Aldrich) to which 10% fetal bovine serum (manufactured by MP Biomedicals) was added. […]
Then, using Nucleospin (registered trademark) RNA kit (manufactured by Takara Bio Inc.), RNA was extracted from senescent fibroblasts or normal human fibroblasts in each example, and cDNA was synthesized from the obtained RNA. Next, using this cDNA as a template, by quantitative real-time PCR, the expression level of each gene was quantified using primers (manufactured by Takara Bio Inc.) specific to the LC3 gene, ATG5 gene, and ATG7 gene, respectively. […]

## COc1ccc([C@@H]2CC(=O)c3c(O)cc(O[C@@H]4O[C@H](CO[C@@H]5O[C@@H](C)[C@H](O)[C@@H](O)[C@H]5O)[C@@H](O)[C@H](O)[C@H]4O)cc3O2)cc1O [Comparative Example 2, hesperidin]
10^−2% (V/V) methyl hesperidin or hesperidin, additional ingredient where in the example, 24 hours, Comparative Example 1 (DMSO) = 1.00
  Relative gene expression level ATG5: 0.93
Compared to DMSO only of Comparative Example 1
  expression level of the ATG5 gene (in words): more decreased
